{"source": "paper PMC9818021", "about": "“Targets, Mechanisms and Cytotoxicity of Half-Sandwich Ir(III) Complexes Are Modulated by Structural Modifications on the Benzazole Ancillary Ligand” (Cancers, 2022)", "key": {"SW480 cells": {"tested_on": "SW480 cells", "assay": "Ir cellular uptake by ICP-MS", "assay_type": "cell-based, human", "settings": "2 µM, 24 h", "protocol": "Quantification of Ir cellular uptake by ICP-MS (Inductively coupled plasma-mass spectrometry). Metal accumulation studies were conducted on the SW480 cell line. In these experiments, 3 × 10^5 cells were seeded in 12.5 cm^2 tissue culture flasks in drug-free medium and incubated for 24h at 37 °C in a 5% CO2 humidified atmosphere. Then, cells were treated with 2 µM of the iridium complexes. After 24 h of exposure, cells were washed twice with PBS and harvested. The pellets were resuspended in PBS, and 10 µL were used to count cells. Then, each resuspended pellet was digested in 65% HNO3 for 24 h. Finally, solutions were analyzed in a 7700 ICP-MS (Agilent Technologies, Palo Alto, CA, USA). Data is reported as the mean the standard deviation (n = 3)."}, "plasmid DNA (pUC18)": {"tested_on": "plasmid DNA (pUC18)", "assay": "Agarose gel electrophoresis of plasmid DNA", "assay_type": "binding, Escherichia coli", "settings": "pUC18 20 µM, overnight 37 °C", "protocol": "Agarose Gel electrophoresis of plasmid DNA Overnight cultures of the strain DH5α of Escherichia coli were isolated with the Quiagen DNA purification kit. Then, 20 µM (in base pairs) of plasmid DNA (pUC18) was incubated with different concentrations of the synthesized iridium complexes overnight at 37 °C. Afterwards, 2 μL of loading buffer were added to 10 μL of the incubated samples and loaded onto a 1% agarose gel. Electrophoresis was run in TAE 1× at 6.5 V/cm during 2.5 h. Then, the agarose gel was stained with ethidium bromide 1 μg/mL and visualized with a Gel Doc XR+ Imaging System (Bio-Rad, Hercules, CA, USA)."}, "A549 cells [1]": {"tested_on": "A549 cells", "assay": "GSH/GSSG-Glo assay", "assay_type": "cell-based, human", "settings": "1 h", "protocol": "(§1) DNA damage was measured using EpiQuik 8-OHdG DNA Damage Quantification Direct Kit (colorimetric) (Fischer, Waltham, MA, USA, P600396); The mitochondrial cytochrome C release was evaluated using the “Millipore’s FlowCellect Cytochrome C Kit (Millipore, FCCH100110)”. Lactate dehydrogenase activity release was measured in the culture medium using Cytotoxicity Detection Kit (Roche Diagnostic, Barcelona, Spain, 11 644 793 001). Protein synthesis was determined using Click-iT Plus O-propargyl-puromycin (OPP) Protein Synthesis Assay Kit (Invitrogen™, Waltham, MA, USA). Measurement of GSH/GSSG was determined with GSH/GSSG-Glo Assay (Promega, V6611). Measurements of OCR and ECAR with Seahorse XFp (Agilent Technologies) were determined using the XFp Cell Mito Stress Test Kit (103010-100) and XFp Glycolysis Stress Test Kit (103017-100). ATP measurement was determined with Cell Titer-Glo Luminescent Cell Viability Assay (Promega, Madison, WI, USA, G7570). Determination of DNA damage using phosphorylated H2AX measurement were performed as previously described. Cardiolipin oxidation using the fluorophore Nonyl Acridine Orange (NAO, Thermo Scientific, A1372) was performed as described. Cell viability was determined by Hoechst inclusion and Propidium iodide (PI) exclusion by standard protocols. TEM analysis were performed as described. […]"}, "A549 cells [2]": {"tested_on": "A549 cells", "assay": "Cell cycle analysis by flow cytometry", "assay_type": "cell-based, human", "settings": "8 µM, 24 h, PI staining", "protocol": "as §1"}, "A549 cells [3]": {"tested_on": "A549 cells", "assay": "Seahorse XFp Cell Mito Stress Test (OCR)", "assay_type": "cell-based, human", "settings": "16 µM, A549, 1 h", "protocol": "DNA damage was measured using EpiQuik 8-OHdG DNA Damage Quantification Direct Kit (colorimetric) (Fischer, Waltham, MA, USA, P600396); The mitochondrial cytochrome C release was evaluated using the “Millipore’s FlowCellect Cytochrome C Kit (Millipore, FCCH100110)”. Lactate dehydrogenase activity release was measured in the culture medium using Cytotoxicity Detection Kit (Roche Diagnostic, Barcelona, Spain, 11 644 793 001). Protein synthesis was determined using Click-iT Plus O-propargyl-puromycin (OPP) Protein Synthesis Assay Kit (Invitrogen™, Waltham, MA, USA). Measurement of GSH/GSSG was determined with GSH/GSSG-Glo Assay (Promega, V6611). Measurements of OCR and ECAR with Seahorse XFp (Agilent Technologies) were determined using the XFp Cell Mito Stress Test Kit (103010-100) and XFp Glycolysis Stress Test Kit (103017-100). ATP measurement was determined with Cell Titer-Glo Luminescent Cell Viability Assay (Promega, Madison, WI, USA, G7570). Determination of DNA damage using phosphorylated H2AX measurement were performed as previously described. Cardiolipin oxidation using the fluorophore Nonyl Acridine Orange (NAO, Thermo Scientific, A1372) was performed as described. Cell viability was determined by Hoechst inclusion and Propidium iodide (PI) exclusion by standard protocols. TEM analysis were performed as described. Cell cycle analysis by flow cytometry and microarrays analysis were performed as described. Arrays data have been deposited in the ArrayExpress database at EMBL-EBI (www.ebi.ac.uk/arrayexpress) under accession number E-MTAB-860 (10 November 2022)"}, "A549 cells [4]": {"tested_on": "A549 cells", "assay": "Mitochondrial membrane potential (TMRM)", "assay_type": "cell-based, human", "settings": "16 µM, TMRM 50 nM", "protocol": "(§2) Specific assays with 1[C,NH] complex were performed according to manufacturer’s instructions using the following reagents from Molecular Probes (Thermo Fisher Scientific): Measurements of ROS: Dihydroethidium (DHE, D11347) and 2′, 7′-dichlorodihydrofluorescein diacetate (H2DCFDA, D399); detection of caspases 3/7: CellEvent Caspase-3/7 Green Detection Reagent (C10423); Cell viability: Live/Dead Cell Imaging Kit (R37601); Analysis of cytosolic calcium concentration: Fluo3/AM (F23915); Analysis of MMP: Tetramethylrhodamine methyl ester perchlorate (TMRM, T668). RT-qPCR’s assays were performed with the following primers/probes from Thermo Fisher Scientific: DCP1A (Hs00218198-m1), FOSB (Hs00171851-m1), EGR1(Hs0015928-m1), ATF3 (Hs00231069-m1), DDIT3 (Hs00358796-g1), PP1R15A (Hs00169585-m1), CHAC1(Hs00225520-m1), MIR9-1 (Hs04231512-s1), ATP1B2 (Hs00155922-m1), BBC3 (Hs00248075-m1), BCL2L11 (Hs00798019-s1), PMAIP1 (Hs00560402-m1), SKP2 (Hs01021864-m1) and HIST1H1B (Hs00271207-s1). RT-qPCR experiments were performed as described."}, "CHOP": {"tested_on": "CHOP", "assay": "CHOP induction (CHOP::GFP plasmid)", "assay_type": "cell-based, human", "settings": "HEK293, 9.7 µM, 24 h time-lapse", "protocol": "CHOP induction. HEK293 cells were seeded at 8 × 10^5 cell/well in 24-well plates and transfected with CHOP::GFP plasmid (Addgene plasmid #21898; http://n2t.net/addgene:21898; RRID:Addgene_21898, 10 November 2022) using the transfection reagent DreamFectTM Gold (OZ Bioscience, Cat. N. º LM80250). After 24 h incubation, the treatments were added: 1[C,NH] 9.7 µM; tunicamycin 0.5 µM as positive control. Cells were stained with propidium iodide (1 µg/mL). Time-lapse images were acquired every 30 min for 24 h."}, "[5]": {"tested_on": "gene expression (stress response, apoptosis, cell cycle genes)", "assay": "RT-qPCR differential gene expression", "assay_type": "cell-based, human", "settings": "vs. Control, 6 h after treatment", "protocol": "as §2"}}}
{"smiles": "Cc1c(C)c(C)[c-](C)c1C.[Cl][Ir]1[O]c2ccccc2-c2sc3ccccc3[n+]21", "note": "[8[CO,S], [(η^5-Cp*)IrCl(κ^2-O,N-hpbtz)]]", "values": [{"measurement": "Metal accumulation in SW480 cells", "setting": "SW480 cells", "result": "highest accumulation"}]}
{"smiles": "Cc1c(C)c(C)[c-](C)c1C.Cn1c2[n+](c3ccccc31)[Ir]([Cl])[c]1ccccc1-2", "note": "[2[C,NMe], [(η^5-Cp*)IrCl(κ^2-N,C-NMepbim)]]", "values": [{"measurement": "Migration pattern of plasmid DNA", "setting": "plasmid DNA (pUC18)", "result": "unable to interact with DNA"}]}
{"smiles": "Cc1c(C)c(C)[c-](C)c1C.[Cl][Ir]1[c]2ccccc2-c2[nH]c3ccccc3[n+]21", "note": "[1[C,NH], [(η^5-Cp*)IrCl(κ^2-N,C-pbim)]]", "values": [{"measurement": "GSH/GSSG ratio", "setting": "A549 cells [1]", "result": "decreased the GSH/GSSG ratio"}, {"measurement": "Cell cycle distribution", "setting": "A549 cells [2]", "result": "percentage of cells in G0/G1 phase increased and cells in G2/M phase decreased"}, {"measurement": "ATP Production, OCR, Mean", "setting": "A549 cells [3]", "result": 7.77, "unit": "pmol/min"}, {"measurement": "Basal Respiration, OCR, Mean", "setting": "A549 cells [3]", "result": 57.35, "unit": "pmol/min"}, {"measurement": "Coupling Efficiency, Mean", "setting": "A549 cells [3]", "result": 13.65}, {"measurement": "Maximal Respiration, OCR, Mean", "setting": "A549 cells [3]", "result": 47.24, "unit": "pmol/min"}, {"measurement": "Non-Mitochondrial Oxygen Consumption, OCR, Mean", "setting": "A549 cells [3]", "result": 26.35, "unit": "pmol/min"}, {"measurement": "Proton Leak, OCR, Mean", "setting": "A549 cells [3]", "result": 49.58, "unit": "pmol/min"}, {"measurement": "Spare Respiratory Capacity as a %, Mean", "setting": "A549 cells [3]", "result": 80.93, "unit": "%"}, {"measurement": "Spare Respiratory Capacity, OCR, Mean", "setting": "A549 cells [3]", "result": 0.27, "unit": "pmol/min"}, {"measurement": "Mitochondrial membrane potential (MMP)", "setting": "A549 cells [4]", "result": "quick and deep dissipation of MMP"}, {"measurement": "CHOP expression", "setting": "CHOP", "result": "increased expression"}, {"measurement": "ATF3 RT-qPCR (2-ΔΔCt)", "setting": "[5]", "result": "> 100"}, {"measurement": "ATP1B2 RT-qPCR (2-ΔΔCt)", "setting": "[5]", "result": 19.5}, {"measurement": "BBC3 RT-qPCR (2-ΔΔCt)", "setting": "[5]", "result": 3.7}, {"measurement": "BCL2L11 RT-qPCR (2-ΔΔCt)", "setting": "[5]", "result": 3.6}, {"measurement": "CHAC1 RT-qPCR (2-ΔΔCt)", "setting": "[5]", "result": 3.5}, {"measurement": "DDIT3 RT-qPCR (2-ΔΔCt)", "setting": "[5]", "result": 7.8}, {"measurement": "EGR1 RT-qPCR (2-ΔΔCt)", "setting": "[5]", "result": "> 100"}, {"measurement": "FOSB RT-qPCR (2-ΔΔCt)", "setting": "[5]", "result": "> 100"}, {"measurement": "HIST1H1B RT-qPCR (2-ΔΔCt)", "setting": "[5]", "result": 0.1}, {"measurement": "MIR9-1 RT-qPCR (2-ΔΔCt)", "setting": "[5]", "result": "> 100"}, {"measurement": "PMAIP1 RT-qPCR (2-ΔΔCt)", "setting": "[5]", "result": 3.4}, {"measurement": "PPP1R15A RT-qPCR (2-ΔΔCt)", "setting": "[5]", "result": 14.8}, {"measurement": "SKP2 RT-qPCR (2-ΔΔCt)", "setting": "[5]", "result": 0.3}, {"measurement": "Migration pattern of plasmid DNA", "setting": "plasmid DNA (pUC18)", "result": "unable to interact with DNA"}]}
